Reference: article PMC4418694, “Crystal Structure of Fad35R from Mycobacterium tuberculosis H37Rv in the Apo-State” (PLoS ONE, 2015)

Target: T1, Fad35R (Mycobacterium tuberculosis, UniProt O06169)
T1 construct: gene Rv2506
T1 sequence (O06169 entry or part of it): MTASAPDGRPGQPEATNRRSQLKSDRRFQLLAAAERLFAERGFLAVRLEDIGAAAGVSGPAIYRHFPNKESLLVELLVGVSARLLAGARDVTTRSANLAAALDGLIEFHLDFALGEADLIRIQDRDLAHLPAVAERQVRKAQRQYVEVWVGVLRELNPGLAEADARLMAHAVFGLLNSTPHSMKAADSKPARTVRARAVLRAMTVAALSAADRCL

## CN(C)[C@@H]1C(=O)C(C(N)=O)=C(O)[C@@]2(O)C(=O)C3=C(O)c4c(O)cccc4[C@@](C)(O)[C@H]3C[C@@H]12 [tetracycline]
  ligand-induced oligomerization: dynamic light scattering, size-exclusion chromat: Tc bound Fad35R has the propensity to form higher oligomers
